# Experimental data published in patent EP2276483B1, “SOLID FORMS COMPRISING (+)-2-[1-(3-ETHOXY-4-METHOXYPHENYL)-2-METHYLSULFONYLETHYL]-4-ACETYLAMINOISOINDOLINE-1,3-DIONE, COMPOSITIONS THEREOF, AND USES THEREOF” (CELGENE CORPORATION, priority 2008, dated 2009).
# Like-named read-outs stand apart in the source and are kept apart here.
# Assays:
# [1] = Stability Studies of solid forms; type: physicochemical
# Description: Stability Studies. The stabilities of Forms A, B, C and D were studied by exposing the solid samples to the stress condition of 40 °C / 75% RH for four weeks. Moreover, the stabilities of Forms A, B, C and D in different solvents were studied by equilibration in different solvents at 40 °C for four weeks. The slurries then were filtered and dried in the air. Solid samples obtained from the stability experiments were analyzed by XRPD and DSC.
# [2] = Interconversion Studies of solid forms; type: physicochemical; conditions: EQ in acetone:ethanol (1:1) at 25 °C; slurry agitated at least 2 days
# Description: Interconversion Studies. Interconversion experiments were performed by making slurries of a solid form in a saturated solvent. The slurries were agitated for at least 2 days at about 25 °C. The saturated solution was removed by filtration and the solid was dried in the air.
# [3] = Hygroscopicity studies (DVS moisture sorption/desorption); type: physicochemical; conditions: for mass change of the starting mass of the sample (moisture sorption): RH increased from about 0% to about 95% RH; for solid-state transformation as a result of DVS analysis (XRPD): after full adsorption/desorption cycle, about 0% to about 95% RH, about 25 °C
# Description: Hygroscopicity studies. The hygroscopicity of various solid forms was studied using a Surface Measurement Systems DVS instrument. Typically a sample size of between about 10-50 mg was loaded into the DVS instrument sample pan and the sample was analyzed on a DVS automated sorption analyzer at about 25 °C. The relative humidity was increased in increments of about 10% from about 0% to about 95% RH: The relative humidity was then decreased in a similar manner to accomplish a full adsorption/desorption cycle. The mass was recorded at periodic intervals throughout the experiment.
# Hygroscopicity Studies. […] Table 6. Solubility Study on Form B
# [4] = Compression Studies of solid forms; conditions: 2000 psi force for at least one minute
# [5] = Solubility Studies in solvents; type: physicochemical; conditions: 25 °C, thermodynamic from solid, about 25 °C, read-out: Approximate Solubility
# Description: Solubility Studies. A weighed sample of Compound A (about 100 mg) was treated with about 2 mL of the test solvent. The solvents used were either reagent or HPLC grade. The resulting mixture was agitated for at least 24 hours at about 25 °C. When all of the solids were dissolved by visual inspection, the estimated solubilities were calculated. The solubilities were estimated from these experiments based on the total volume of solvent used to give a solution. The actual solubilities may be greater than those calculated due to the use of large amount of solvent or to a slow rate of dissolution. […] A known volume of filtrate was evaporated to dryness and the weight of the residue was measured.
# Solubility Studies. […] Form B was also found to have low solubility in several solvents including n-butanol, heptane, 2-propanol, toluene and water (less than about 1 mg/mL).
# [6] = EQ in ethanol at 40 °C for 4 weeks
# [7] = EQ in heptane at 40 °C for 4 weeks
# [8] = EQ in toluene at 40 °C for 4 weeks
# [9] = EQ in water at 40 °C for 4 weeks
SMILES,"Analysis by XRPD (resulting form) ([1]; 40 °C / 75% RH, 4 weeks)","Appearance ([1]; 40 °C / 75% RH, 4 weeks)","Analysis by XRPD (resulting form) [1, 6]","Analysis by XRPD (resulting form) [1, 7]","Analysis by XRPD (resulting form) [1, 8]","Analysis by XRPD (resulting form) [1, 9]",Analysis by XRPD (resulting form) [2],mass change of the starting mass of the sample (moisture sorption) [3],solid-state transformation as a result of DVS analysis (XRPD) [3],physical stability upon compression by XRPD analysis [4],further results
"CCOc1cc(C(CS(C)(=O)=O)N2C(=O)c3cccc(NC(C)=O)c3C2=O)ccc1OC (single isomer, unassigned; (+)) [Form A, (+)-2-[1-(3-ethoxy-4-methoxyphenyl)-2-methylsulfonylethyl]-4-acetylaminoisoindoline-1,3-dione]",Form A,White solid,Form F,Form A,Form C,Form A,Form B,about 0.4%,none of the forms analyzed underwent substantial solid-state transformation,substantially physically stable,–
"CCOc1cc(C(CS(C)(=O)=O)N2C(=O)c3cccc(NC(C)=O)c3C2=O)ccc1OC (single isomer, unassigned; (+)) [Form B, (+)-2-[1-(3-ethoxy-4-methoxyphenyl)-2-methylsulfonylethyl]-4-acetylaminoisoindoline-1,3-dione]",Form B,White solid,Form B,Form B,Form B,Form B,–,about 0.6%,none of the forms analyzed underwent substantial solid-state transformation,substantially physically stable,"solubility ([5]; 2-propanol, organic solvent or mixture, 2-Propanol): < 1000 µg/mL; solubility ([5]; absolute ethanol, organic solvent or mixture, Absolute ethanol): 1380 µg/mL; solubility ([5]; acetone, organic solvent or mixture, Acetone): > 50000 µg/mL; solubility ([5]; acetonitrile, organic solvent or mixture, Acetonitrile): > 50000 µg/mL; solubility ([5]; ethanol:water (1:1), aqueous with cosolvent or surfactant or cyclodextrin, Ethanol: Water (1:1)): 2860 µg/mL; solubility ([5]; ethyl acetate, organic solvent or mixture, Ethyl acetate): ~30200 µg/mL; solubility ([5]; methanol, organic solvent or mixture, Methanol): 4050 µg/mL; solubility ([5]; methyl ethyl ketone, organic solvent or mixture, Methyl ethyl ketone): > 50000 µg/mL; solubility ([5]; methyl t-butyl ether, organic solvent or mixture, Methyl t-butyl ether): 1170 µg/mL; solubility ([5]; methylene chloride, organic solvent or mixture, Methylene chloride): > 50000 µg/mL; solubility ([5]; n-butanol, organic solvent or mixture, n-Butanol): < 1000 µg/mL; solubility ([5]; n-butyl acetate, organic solvent or mixture, n-Butyl acetate): 9750 µg/mL; solubility ([5]; tetrahydrofuran, organic solvent or mixture, Tetrahydrofuran): > 50000 µg/mL; solubility ([5]; toluene, organic solvent or mixture, Toluene): < 1000 µg/mL; solubility ([5]; water, water, Water): < 1000 µg/mL"
"CCOc1cc(C(CS(C)(=O)=O)N2C(=O)c3cccc(NC(C)=O)c3C2=O)ccc1OC (single isomer, unassigned; (+)) [Form C, (+)-2-[1-(3-ethoxy-4-methoxyphenyl)-2-methylsulfonylethyl]-4-acetylaminoisoindoline-1,3-dione]",Form C,Yellow solid,Form C,Form C,Form C,Form C,Form C,about 0.5%,none of the forms analyzed underwent substantial solid-state transformation,substantially physically stable,–
"CCOc1cc(C(CS(C)(=O)=O)N2C(=O)c3cccc(NC(C)=O)c3C2=O)ccc1OC (single isomer, unassigned; (+)) [Form D, (+)-2-[1-(3-ethoxy-4-methoxyphenyl)-2-methylsulfonylethyl]-4-acetylaminoisoindoline-1,3-dione]",Form D,White solid,Form B,Form B,Form C,Form B,Form B,about 1.5%,none of the forms analyzed underwent substantial solid-state transformation,substantially physically stable,–
"CCOc1cc(C(CS(C)(=O)=O)N2C(=O)c3cccc(NC(C)=O)c3C2=O)ccc1OC (single isomer, unassigned; (+)) [Form E, (+)-2-[1-(3-ethoxy-4-methoxyphenyl)-2-methylsulfonylethyl]-4-acetylaminoisoindoline-1,3-dione]",–,–,–,–,–,–,Form B,about 5.1%,none of the forms analyzed underwent substantial solid-state transformation,–,–
"CCOc1cc(C(CS(C)(=O)=O)N2C(=O)c3cccc(NC(C)=O)c3C2=O)ccc1OC (single isomer, unassigned; (+)) [Form F, (+)-2-[1-(3-ethoxy-4-methoxyphenyl)-2-methylsulfonylethyl]-4-acetylaminoisoindoline-1,3-dione]",–,–,–,–,–,–,Form F,about 0.2%,none of the forms analyzed underwent substantial solid-state transformation,–,–
"CCOc1cc(C(CS(C)(=O)=O)N2C(=O)c3cccc(NC(C)=O)c3C2=O)ccc1OC (single isomer, unassigned; (+)) [Form G, (+)-2-[1-(3-ethoxy-4-methoxyphenyl)-2-methylsulfonylethyl]-4-acetylaminoisoindoline-1,3-dione]",–,–,–,–,–,–,Form B,about 0.4%,none of the forms analyzed underwent substantial solid-state transformation,–,–
